Where two headings read alike, the source gives them in different places. One block for each compound: values may come before it.
Assays:
NCI-H358 (K-Ras G12C) = test: CellTiter-Glo cell viability assay, 5-day treatment; assay type: cell-based; settings: Homo sapiens
Experimental: Protocol: CellTiter-Glo® Cell Viability Assay
Note—The following protocol describes a procedure for monitoring cell viability of K-Ras mutant cancer cell lines in response to a compound of the invention. Other RAS isoforms may be employed, though the number of cells to be seeded will vary based on cell line used.
(§1) Test compounds (132.5 nL) were directly dispensed into the assay plates containing cells. […] On day 5, assay plates and their contents were equilibrated to room temperature for approximately 30 minutes. […] Luminescence was measured using the PerkinElmer Enspire. Data were normalized by the following: (Sample signal/Avg. DMSO)*100. The data were fit using a four-parameter logistic fit.
as §1, with “nl)” for “nL)”

KRAS G12V = KRAS G12V (Homo sapiens, UniProt P01116+P62937, G12V); test: Disruption of BRAF RBD interaction with Ras (FRET / MOA assay, with Cyclophilin A); assay type: biochemical; settings: KRAS G12V; read-out: KRAS G12V FRET data IC50
Chain of KRAS G12V (P01116 1-169 isoform P01116-2 G12V limits assumed): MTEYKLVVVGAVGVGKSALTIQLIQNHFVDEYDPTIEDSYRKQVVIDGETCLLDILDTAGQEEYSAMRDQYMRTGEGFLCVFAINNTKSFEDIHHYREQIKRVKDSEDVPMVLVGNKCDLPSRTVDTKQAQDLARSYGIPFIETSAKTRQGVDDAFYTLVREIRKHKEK
Chain of KRAS G12V (P62937 whole entry): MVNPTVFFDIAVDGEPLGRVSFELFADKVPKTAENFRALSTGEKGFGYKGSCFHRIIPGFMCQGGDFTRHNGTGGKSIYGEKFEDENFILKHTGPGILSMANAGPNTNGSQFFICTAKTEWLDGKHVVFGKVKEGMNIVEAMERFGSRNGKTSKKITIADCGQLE
Source text: (§2) This protocol may also be executed substituting other Ras proteins or nucleotides.
(§3) The purpose of this biochemical assay was to measure the ability of test compounds to facilitate ternary complex formation between a nucleotide-loaded K-Ras isoform and Cyclophilin A; the resulting ternary complex disrupts binding to a BRAF^RBD construct, inhibiting K-Ras signaling through a RAF effector. Data is reported as IC50 values.
(§4) Compound was present in plate wells as a 10-point 3-fold dilution series starting at a final concentration of 30 μM. After incubation at 25° C. for 3 hours, a mixture of Anti-His Eu-W1024 and anti-GST allophycocyanin was then added to assay sample wells at final concentrations of 10 nM and 50 nM, respectively, and the reaction incubated for an additional 1.5 hours. […] Compounds that facilitate disruption of a K-Ras:RAF complex were identified as those eliciting a decrease in the TR-FRET ratio relative to DMSO control wells.
as §3, with “BRAF^RBDD” for “BRAF^RBD”

KRAS G13C = KRAS G13C (Homo sapiens, UniProt P01116+P62937, G13C); test: as above; assay type: biochemical; settings: KRAS G13C; read-out: KRAS G13C FRET data IC50
Chain of KRAS G13C (P01116 1-169 isoform P01116-2 G13C): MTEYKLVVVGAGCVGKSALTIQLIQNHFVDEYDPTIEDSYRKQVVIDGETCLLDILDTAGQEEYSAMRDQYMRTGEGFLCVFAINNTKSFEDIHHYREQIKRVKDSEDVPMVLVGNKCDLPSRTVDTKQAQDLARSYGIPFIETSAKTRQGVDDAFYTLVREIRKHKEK
Chain of KRAS G13C (P62937 whole entry): as the sequence (P62937 whole entry) above
Source text: as §2, §3, §4
as §3, with “BRAF^RBDD” for “BRAF^RBD”

NRAS G12C = NRAS G12C (Homo sapiens, UniProt P01111+P62937, G12C); test: as above; assay type: biochemical; settings: NRAS G12C; read-out: NRAS G12C FRET data IC50
Chain of NRAS G12C (P01111 whole entry G12C): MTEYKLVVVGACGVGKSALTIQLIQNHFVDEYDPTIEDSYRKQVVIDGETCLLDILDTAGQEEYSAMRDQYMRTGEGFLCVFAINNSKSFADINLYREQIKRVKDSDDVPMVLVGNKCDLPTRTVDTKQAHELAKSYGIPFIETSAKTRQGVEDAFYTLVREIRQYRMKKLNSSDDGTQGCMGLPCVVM
Chain of NRAS G12C (P62937 whole entry): as the sequence (P62937 whole entry) above
Source text: as §2, §3, §4
as §3, with “BRAF^RBDD” for “BRAF^RBD”

KRAS WT = KRAS WT (Homo sapiens, UniProt P01116+P62937); test: as above; assay type: biochemical; settings: KRAS WT; read-out: KRAS WT FRET data IC50
Chain of KRAS WT (P01116 1-169 isoform P01116-2 limits assumed): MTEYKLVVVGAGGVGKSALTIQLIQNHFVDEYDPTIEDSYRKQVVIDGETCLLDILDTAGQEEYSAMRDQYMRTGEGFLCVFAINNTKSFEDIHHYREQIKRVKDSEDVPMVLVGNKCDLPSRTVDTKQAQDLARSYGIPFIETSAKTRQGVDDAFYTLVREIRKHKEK
Chain of KRAS WT (P62937 whole entry): as the sequence (P62937 whole entry) above
Source text: as §2, §3, §4
as §3, with “BRAF^RBDD” for “BRAF^RBD”

KRAS G12C = KRAS G12C (Homo sapiens, UniProt P01116+P62937, G12C); test: as above; assay type: biochemical; settings: KRAS G12C; read-out: KRAS G12C FRET data IC50
Chain of KRAS G12C (P01116 1-169 isoform P01116-2 G12C): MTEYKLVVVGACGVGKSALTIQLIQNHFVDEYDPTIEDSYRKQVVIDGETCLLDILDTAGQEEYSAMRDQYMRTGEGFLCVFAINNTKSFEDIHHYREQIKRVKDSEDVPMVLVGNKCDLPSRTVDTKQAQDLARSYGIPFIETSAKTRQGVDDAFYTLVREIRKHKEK
Chain of KRAS G12C (P62937 whole entry): as the sequence (P62937 whole entry) above
Source text: as §2, §3, §4
as §3, with “BRAF^RBDD” for “BRAF^RBD”

KRAS G13D = KRAS G13D (Homo sapiens, UniProt P01116+P62937, G13D); test: as above; assay type: biochemical; settings: KRAS G13D; read-out: KRAS G13D FRET data IC50
Chain of KRAS G13D (P01116 1-169 isoform P01116-2 G13D limits assumed): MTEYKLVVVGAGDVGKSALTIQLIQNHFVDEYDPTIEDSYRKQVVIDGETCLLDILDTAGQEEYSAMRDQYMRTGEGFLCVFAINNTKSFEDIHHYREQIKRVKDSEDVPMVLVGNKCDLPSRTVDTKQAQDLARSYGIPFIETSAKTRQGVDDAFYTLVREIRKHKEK
Chain of KRAS G13D (P62937 whole entry): as the sequence (P62937 whole entry) above
Source text: as §2, §3, §4
as §3, with “BRAF^RBDD” for “BRAF^RBD”

KRAS G12S = KRAS G12S (Homo sapiens, UniProt P01116+P62937, G12S); test: as above; assay type: biochemical; settings: read-out: KRAS G12S FRET data, IC50
Chain of KRAS G12S (P01116 1-169 isoform P01116-2 G12S limits assumed): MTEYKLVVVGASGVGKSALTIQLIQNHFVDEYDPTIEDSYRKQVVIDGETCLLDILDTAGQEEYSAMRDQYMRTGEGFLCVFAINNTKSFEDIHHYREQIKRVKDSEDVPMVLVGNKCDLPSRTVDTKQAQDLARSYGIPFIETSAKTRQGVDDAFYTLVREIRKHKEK
Chain of KRAS G12S (P62937 whole entry): as the sequence (P62937 whole entry) above
Source text: as §2, §3, §4
as §3, with “BRAF^RBDD” for “BRAF^RBD”

[1] = NCI-H358, H358, K-Ras G12C, read-out: Additional H358 Cell Viability assay data (K-Ras G12C, IC50)
[2] = NCI-H358, 120 h, 5-day treatment, read-out: H358 Cell Viability assay data (K-Ras G12C, IC50)

IC50 (NCI-H358 (K-Ras G12C); [2]): 10 to 100 nM
IC50 (KRAS G12V): 10 to 100 nM
SMILES: CCn1c(-c2cccnc2[C@H](C)OC)c2c3cc(ccc31)-c1cc(O)cc(c1)C[C@H](NC(=O)[C@H](C(C)C)N(C)C(=O)[C@@H]1C[C@@H]1F)C(=O)N1CCC[C@H](N1)C(=O)OCC(C)(C)C2 [Example A160]

IC50 (NCI-H358 (K-Ras G12C); [2]): 10 to 100 nM
SMILES: CCn1c(-c2cccnc2[C@H](C)OC)c2c3cc(ccc31)-c1cc(O)cc(c1)C[C@H](NC(=O)[C@H](C(C)C)N(C)C(=O)[C@@H]1NC[C@@H]3C[C@@H]31)C(=O)N1CCC[C@H](N1)C(=O)OCC(C)(C)C2 [Example A217]

IC50 (NCI-H358 (K-Ras G12C); [2]): 100 to 1000 nM
SMILES: CCn1c(-c2cccnc2[C@H](C)OC)c2c3cc(ccc31)-c1cc(O)cc(c1)C[C@H](NC(=O)[C@H](C(C)C)N(C)C(=O)C1CCCC1)C(=O)N1CCC[C@H](N1)C(=O)OCC(C)(C)C2 [Example A219]

IC50 (NCI-H358 (K-Ras G12C); [2]): 10 to 100 nM
SMILES: CCn1c(-c2cccnc2[C@H](C)OC)c2c3cc(ccc31)-c1cc(O)cc(c1)C[C@H](NC(=O)[C@H](C(C)C)N(C)C(=O)[C@@H]1C[C@@H]1C)C(=O)N1CCC[C@H](N1)C(=O)OCC(C)(C)C2 [Example A223]

IC50 (NCI-H358 (K-Ras G12C); [1]): < 10 nM
SMILES: C=CC(=O)Nc1cnc(C(=O)N(C)[C@H](C(=O)N[C@H]2Cc3cccc(c3)-c3ccc4c(c3)c(c(-c3cccnc3[C@H](C)OC)n4CC)CC(C)(C)COC(=O)[C@@H]3CCCN(N3)C2=O)C(C)C)n1C [Example A525]

The remaining lines, values behind:

SMILES: CCn1c(-c2cccnc2COC)c2c3cc(ccc31)-c1cc(C)cc(c1)C[C@H](NC(=O)[C@H](C(C)C)N(C)C(=O)[C@H]1CCN(C(=O)C#CCN(C)C)C1)C(=O)N1CCC[C@H](N1)C(=O)OCC(C)(C)C2 [Example A157]
IC50 (NCI-H358 (K-Ras G12C); [1]): < 10 nM

SMILES: CCn1c(-c2cccnc2[C@H](C)OC)c2c3cc(ccc31)-c1csc(n1)C[C@H](NC(=O)[C@H](C(C)C)N1CCC3(CCN(C(=O)OC)C3)C1=O)C(=O)N1CCC[C@H](N1)C(=O)OCC(C)(C)C2 (stereo partly drawn) [Example A221]
IC50 (NCI-H358 (K-Ras G12C); [2]): 100 to 1000 nM

SMILES: C=CC(=O)N1CC[C@H](C(=O)N(C)[C@H](C(=O)N[C@H]2Cc3nc(cs3)-c3ccc4c(n3)c(c(-c3cccnc3[C@H](C)OC)n4CC)CC(C)(C)COC(=O)[C@@H]3CCCN(N3)C2=O)C(C)C)C1 [Example A347, (2S)—N-[(7S,13S)-21-ethyl-20-{2-[(1S)-1-methoxyethyl]pyridin-3-yl}-17,17-dimethyl-8,14-dioxo-15-oxa-4-thia-9,21,25,27,28-pentaazapentacyclo[17.5.2.1^{2,5}.1^{9,13}.0^{22,26}]octacosa-1(25),2,5(25),19,22(26),23-hexaen-7-yl]-3-methy-2-{N-methyl-1-[(3S)-1-(prop-2-enoyl)pyrrolidin-3-yl]formamido}butanamide]
IC50 (NCI-H358 (K-Ras G12C); [1]): 100 to 1000 nM

SMILES: C=CC(=O)N1CC(OC[C@H](C(=O)N[C@H]2Cc3cccc(c3)-c3ccc4c(c3)c(c(-c3cccnc3[C@H](C)OC)n4CC(F)(F)F)CC(C)(C)COC(=O)[C@@H]3CCCN(N3)C2=O)C(C)C)C1 [Example A453]
IC50 (NCI-H358 (K-Ras G12C); [1]): 100 to 1000 nM
IC50 (KRAS G13C): > 10 µM
IC50 (NRAS G12C): 1 to 10 µM
IC50 (KRAS G12V): > 10000 nM
IC50 (KRAS WT): > 10 µM
IC50 (KRAS G12C): 1 to 10 µM
IC50 (KRAS G13D): > 10 µM
IC50 (KRAS G12S): > 10 µM

SMILES: C=CC(=O)N1CC[C@H](C(=O)N(C)[C@H](C(=O)N[C@H]2CCC(=O)N(C)Cc3ccc4c(c3)c(c(-c3cccnc3[C@H](C)OC)n4CC)CC(C)(C)COC(=O)[C@@H]3CCCN(N3)C2=O)C(C)C)C1 [Example A500]
IC50 (NCI-H358 (K-Ras G12C); [1]): > 1000 nM
IC50 (NRAS G12C): > 10 µM
IC50 (KRAS G12C): > 10 µM
IC50 (KRAS G13D): > 10 µM

Reference: patent publication US20230233569A1 (Revolution Medicines, Inc., priority 2020, published 2023)
